The experiment addresses T1, yCPT1 (cholinephosphotransferase) (Saccharomyces cerevisiae, UniProt P17898).
T1 sequence (P17898 1-393): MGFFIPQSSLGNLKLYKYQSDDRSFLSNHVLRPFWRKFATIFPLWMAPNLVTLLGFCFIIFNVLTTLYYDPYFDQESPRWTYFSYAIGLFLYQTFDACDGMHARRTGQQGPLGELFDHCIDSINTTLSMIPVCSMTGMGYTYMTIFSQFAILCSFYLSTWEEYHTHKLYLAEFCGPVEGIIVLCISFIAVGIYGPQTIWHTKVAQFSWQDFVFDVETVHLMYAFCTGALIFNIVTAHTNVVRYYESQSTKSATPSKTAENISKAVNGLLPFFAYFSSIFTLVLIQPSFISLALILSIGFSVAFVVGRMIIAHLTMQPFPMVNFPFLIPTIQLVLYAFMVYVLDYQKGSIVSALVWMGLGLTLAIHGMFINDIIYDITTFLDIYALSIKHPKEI
Nature of the experiment: cryo-EM structure. In kind it is biochemical.

By IC50 is commonly meant the midpoint of a concentration-inhibition curve. Low values mean higher potency, high ones lower potency. Regarding `COc1ccc2c(c[n+](C)c3c4cc5c(cc4ccc23)OCO5)c1OC` [chelerythrine], inhibition was half-maximal at 443 nM (IC50).

For the origin of these results see article PMC11696302 (Nature Communications, 2025).
